According to patent publication US11046671B2, “Dihydropyrimidinyl benzazepine carboxamide compounds” (Hoffmann-La Roche Inc., priority 2016, dated 2021):

Legend:
[1] = target: human TLR8 (Homo sapiens (Human), UniProt Q9NR97); assay: HEK-Blue human TLR8 cells, NF-κB SEAP reporter assay; type: cell-based; conditions: 20 hours stimulation
Excerpt: (§1) For TLR8 and TLR7 activity testing, HEK-Blue human TLR8 or TLR7 cells (Invivogen, San Diego, Calif., USA) are used, respectively. These cells are designed for studying the stimulation of human TLR8 or TLR7 by monitoring the activation of NF-κB. A SEAP (secreted embryonic alkaline phosphatase) reporter gene is placed under the control of the IFN-b minimal promoter fused to five NF-κB and AP-1-binding sites. Therefore the reporter expression is regulated by the NF-κB promoter upon stimulation of human TLR8 or TLR7 for 20 hours. The cell culture supernatant SEAP reporter activity was determined using Quanti Blue kit (Invivogen, San Diego, Ca, USA) at a wavelength of 640 nm, a detection medium that turns purple/blue in the presence of alkaline phosphatase. EC50 values were determined using Activity Base analysis (ID Business Solution, Limited).

[2] = target: human TLR7 (Homo sapiens (Human), UniProt Q9NYK1); assay: HEK-Blue human TLR7 cells, NF-κB SEAP reporter assay; type: cell-based; conditions: 20 hours stimulation
Excerpt: as §1

Chain of human TLR8 (Q9NR97 27-1041): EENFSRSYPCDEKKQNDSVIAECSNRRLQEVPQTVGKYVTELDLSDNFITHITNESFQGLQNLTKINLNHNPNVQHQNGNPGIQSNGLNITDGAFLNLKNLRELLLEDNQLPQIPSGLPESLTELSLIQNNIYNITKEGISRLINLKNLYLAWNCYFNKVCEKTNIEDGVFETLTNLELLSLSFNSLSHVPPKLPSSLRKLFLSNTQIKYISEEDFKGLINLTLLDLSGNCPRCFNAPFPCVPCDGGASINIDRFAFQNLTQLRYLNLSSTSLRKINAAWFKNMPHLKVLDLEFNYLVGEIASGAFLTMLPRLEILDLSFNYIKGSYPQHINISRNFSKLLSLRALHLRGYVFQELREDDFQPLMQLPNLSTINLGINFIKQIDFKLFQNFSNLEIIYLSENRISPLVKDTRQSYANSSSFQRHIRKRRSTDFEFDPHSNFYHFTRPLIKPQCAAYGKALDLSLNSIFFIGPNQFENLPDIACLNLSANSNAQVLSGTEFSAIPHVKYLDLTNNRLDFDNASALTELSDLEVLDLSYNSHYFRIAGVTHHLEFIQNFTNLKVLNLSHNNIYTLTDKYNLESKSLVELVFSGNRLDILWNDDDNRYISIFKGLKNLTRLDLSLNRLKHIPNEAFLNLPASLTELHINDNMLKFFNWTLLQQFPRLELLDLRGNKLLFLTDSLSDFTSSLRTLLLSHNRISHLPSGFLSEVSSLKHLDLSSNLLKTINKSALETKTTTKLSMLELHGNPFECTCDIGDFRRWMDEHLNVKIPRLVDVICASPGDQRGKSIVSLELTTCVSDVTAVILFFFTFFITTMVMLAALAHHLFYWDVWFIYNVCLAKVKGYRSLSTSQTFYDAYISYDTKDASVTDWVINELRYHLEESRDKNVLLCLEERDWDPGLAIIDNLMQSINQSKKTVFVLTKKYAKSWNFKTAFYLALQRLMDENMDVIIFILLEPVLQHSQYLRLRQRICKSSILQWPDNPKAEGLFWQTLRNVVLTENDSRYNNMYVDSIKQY
Chain of human TLR7 (Q9NYK1 27-1049): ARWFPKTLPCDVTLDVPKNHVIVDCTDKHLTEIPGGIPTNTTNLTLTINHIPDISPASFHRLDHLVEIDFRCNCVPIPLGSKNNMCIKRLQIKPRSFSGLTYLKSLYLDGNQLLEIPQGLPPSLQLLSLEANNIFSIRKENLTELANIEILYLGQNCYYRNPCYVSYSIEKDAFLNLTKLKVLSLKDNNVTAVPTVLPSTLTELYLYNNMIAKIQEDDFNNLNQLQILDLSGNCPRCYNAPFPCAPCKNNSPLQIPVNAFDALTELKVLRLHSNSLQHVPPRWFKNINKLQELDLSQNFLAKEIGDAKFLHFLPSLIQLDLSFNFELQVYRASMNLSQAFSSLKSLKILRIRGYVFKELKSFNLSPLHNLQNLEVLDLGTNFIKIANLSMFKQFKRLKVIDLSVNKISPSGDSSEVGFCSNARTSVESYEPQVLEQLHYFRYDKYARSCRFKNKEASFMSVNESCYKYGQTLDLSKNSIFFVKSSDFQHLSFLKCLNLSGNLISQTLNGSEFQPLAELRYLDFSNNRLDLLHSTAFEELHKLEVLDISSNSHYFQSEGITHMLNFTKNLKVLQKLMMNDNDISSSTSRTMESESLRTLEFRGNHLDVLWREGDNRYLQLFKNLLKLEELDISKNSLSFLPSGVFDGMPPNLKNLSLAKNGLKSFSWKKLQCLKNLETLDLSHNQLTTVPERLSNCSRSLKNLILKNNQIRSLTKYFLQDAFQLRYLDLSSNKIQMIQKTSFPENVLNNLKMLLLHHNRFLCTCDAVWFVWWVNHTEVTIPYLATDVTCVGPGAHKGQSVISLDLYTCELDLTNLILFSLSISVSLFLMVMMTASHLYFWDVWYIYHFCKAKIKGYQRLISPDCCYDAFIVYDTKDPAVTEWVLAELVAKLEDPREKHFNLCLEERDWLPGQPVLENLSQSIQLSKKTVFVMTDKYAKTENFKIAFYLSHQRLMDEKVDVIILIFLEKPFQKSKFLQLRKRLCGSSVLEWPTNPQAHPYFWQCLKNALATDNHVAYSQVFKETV

SMILES	EC50 [1]	EC50 [2]
CCCN(CCC)C(=O)C1=Cc2ccc(C3=NCc4ccccc4N3)cc2N=C(N)C1 [Example 1, 2-Amino-8-(1,4-dihydroquinazolin-2-yl)-N,N-dipropyl-3H-1-benzazepine-4-carboxamide]	3 nM	> 100000 nM
CCCN(CCC)C(=O)C1=Cc2ccc(C3=NCc4ccncc4N3)cc2N=C(N)C1 [Example 2, 2-Amino-8-(1,4-dihydropyrido[3,4-d]pyrimidin-2-yl)-N,N-dipropyl-3H-1-benzazepine-4-carboxamide]	3 nM	> 100000 nM
CCCN(CC1CC1)C(=O)C1=Cc2ccc(C3=NCc4ccccc4N3)cc2N=C(N)C1 [Example 3, 2-Amino-N-(cyclopropylmethyl)-8-(1,4-dihydroquinazolin-2-yl)-N-propyl-3H-1-benzazepine-4-carboxamide]	6 nM	> 100000 nM
CCCN(CC(C)C)C(=O)C1=Cc2ccc(C3=NCc4ccccc4N3)cc2N=C(N)C1 [Example 4, 2-Amino-8-(1,4-dihydroquinazolin-2-yl)-N-isobutyl-N-propyl-3H-1-benzazepine-4-carboxamide]	11 nM	> 100000 nM
CCCN(CCC)C(=O)C1=Cc2ccc(C3=NCc4c(Cl)cccc4N3)cc2N=C(N)C1 [Example 5, 2-Amino-8-(5-chloro-1,4-dihydroquinazolin-2-yl)-N,N-dipropyl-3H-1-benzazepine-4-carboxamide]	11 nM	–
CCCN(CCC)C(=O)C1=Cc2ccc(C3=NCc4ccc(Cl)cc4N3)cc2N=C(N)C1 [Example 6, 2-Amino-8-(7-chloro-1,4-dihydroquinazolin-2-yl)-N,N-dipropyl-3H-1-benzazepine-4-carboxamide]	9 nM	> 100000 nM
CCCN(CCC)C(=O)C1=Cc2ccc(C3=NC(C)(C)c4ccccc4N3)cc2N=C(N)C1 [Example 7, 2-Amino-8-(4,4-dimethyl-1H-quinazolin-2-yl)-N,N-dipropyl-3H-1-benzazepine-4-carboxamide]	7 nM	> 100000 nM
CCCN(CCC)C(=O)C1=Cc2ccc(C3=NCc4cc(Cl)ccc4N3)cc2N=C(N)C1 [Example 8, 2-Amino-8-(6-chloro-1,4-dihydroquinazolin-2-yl)-N,N-dipropyl-3H-1-benzazepine-4-carboxamide]	6 nM	> 100000 nM
CCCN(CCC)C(=O)C1=Cc2ccc(C3=NCc4c(C)cccc4N3)cc2N=C(N)C1 [Example 9, 2-Amino-8-(5-methyl-1,4-dihydroquinazolin-2-yl)-N,N-dipropyl-3H-1-benzazepine-4-carboxamide]	1 nM	> 100000 nM
CCCN(CCC)C(=O)C1=Cc2ccc(C3=NCc4c(F)cccc4N3)cc2N=C(N)C1 [Example 10, 2-Amino-8-(5-fluoro-1,4-dihydroquinazolin-2-yl)-N,N-dipropyl-3H-1-benzazepine-4-carboxamide]	3 nM	> 100000 nM
CCCN(CCC)C(=O)C1=Cc2ccc(C3=NCc4cc(OC)ccc4N3)cc2N=C(N)C1 [Example 11, 2-Amino-8-(6-methoxy-1,4-dihydroquinazolin-2-yl)-N,N-dipropyl-3H-1-benzazepine-4-carboxamide]	2 nM	> 100000 nM
